Data on 10 compounds can be found in PubChem BioAssay AID1259411 (Chemical Carcinogenesis Research Information System (CCRIS), 2018).

SMILES strings stand for the structures. The source made the active and inactive calls. No rule for the calls is given here.

The data set concerns rodent carcinogenicity bioassays, tumor incidence. The data set can be described thus: CCRIS carcinogenicity studies. Put shortly: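 Archive of carcinogenicity, mutagenicity, tumor promotion and tumor inhibition results drawn from journals, NCI reports and other sources, expert-reviewed; covers 1985-2011 and is no longer updated.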

`O=C(O)C(Br)Br`: the carcinogen call reads like this: (Species: Mouse, Strain/Sex: B6C3F1/Female, Route: Oral, Dose: 0, 50, 500, 1,000 mg/l in drinking water for 2 yr, Dose: 0, 50, 500, 1,000 mg/l in drinking water for 2 yr, Tumor Site: Type of Lesion: Liver: Hepatocellular adenoma (19/49; 26/50; 32/50; 35/49), Hepatocellular carcinoma (3/49, 3/50, 12/50, 8/49), Hepatoce, Tumor Site: Type of Lesion: Liver: Hepatocellular adenoma (19/49; 26/50; 32/50; 35/49), Hepatocellular carcinoma (3/49, 3/50, 12/50, 8/49), Hepatoce) “active; positive (ntp reports as clear evidence)”; (Species: Mouse, Strain/Sex: B6C3F1/Male, Route: Oral, Dose: 0, 50, 500, 1,000 mg/l in drinking water for 2 yr, Dose: 0, 50, 500, 1,000 mg/l in drinking water for 2 yr, Tumor Site: Type of Lesion: Liver: Hepatocellular adenoma (18/49; 37/50; 42/50), Hepatocellular carcinoma (14/49, 9/50, 19/50, 26/50), Hepato, Tumor Site: Type of Lesion: Liver: Hepatocellular adenoma (18/49; 37/50; 42/50), Hepatocellular carcinoma (14/49, 9/50, 19/50, 26/50), Hepato) “active; positive (ntp reports as clear evidence)”; (Species: Rat, Strain/Sex: F344/N/Female, Route: Oral, Dose: 0, 50, 500, 1000 mg/l in drinking water for 2 yr, Dose: 0, 50, 500, 1000 mg/l in drinking water for 2 yr, Tumor Site: Type of Lesion: All organs: Mononuclear cell leukemia (11/50, 13/50, 16/50, 22/50)) “active; positive trend (not statistically significant) (ntp reports as some evidence)”; (Species: Rat, Strain/Sex: F344/N/Male, Route: Oral, Dose: 0, 50, 500, 1000 mg/l in drinking water continuous for 2 yr, Dose: 0, 50, 500, 1000 mg/l in drinking water continuous for 2 yr, Tumor Site: Type of Lesion: All organs: Malignant mesothelioma (3/50, 1/50, 0/50, 10/50), Mononuclear cell leukemia (17/50, 31/50, 24/50, 13/50)) “active; positive (malignant mesothelioma) (ntp reports as some evidence); mononuclear ce”.

As for `Nc1ccc(C(=O)Nc2ccccc2N)cc1`, the carcinogen call runs as follows: (Species: RAT, Strain/Sex: CD-1/FEMALE, Route: GAVAGE, Dose: 0, 1, 3, 9 (WK 1-25), 6 (WK 26-46), 5 (WK 47-106) MG/KG IN 0.8% METHOCEL (TOTAL VOLUME 0.2-0.5 ML/RAT 2/WK FOR 105 WK (M, Dose: 0, 1, 3, 9 (WK 1-25), 6 (WK 26-46), 5 (WK 47-106) MG/KG IN 0.8% METHOCEL (TOTAL VOLUME 0.2-0.5 ML/RAT 2/WK FOR 105 WK (M, Tumor Site: Type of Lesion: ADRENAL GLAND: TUMOR, OVARIES: TUMOR, VAGINA: TUMOR, Tumor Site: Type of Lesion: ADRENAL GLAND: TUMOR, OVARIES: TUMOR, VAGINA: TUMOR) “active; positive”; (Species: RAT, Strain/Sex: CD-1/MALE, Route: GAVAGE, Dose: 0, 1, 3, 9 (WK 1-25), 6 (WK 26-46), 5 (WK 47-106) MG/KG IN 0.8% METHOCEL(TOTAL VOLUME 0.2-0.5 ML/RAT 2/WK FOR 105 WK (ME, Dose: 0, 1, 3, 9 (WK 1-25), 6 (WK 26-46), 5 (WK 47-106) MG/KG IN 0.8% METHOCEL(TOTAL VOLUME 0.2-0.5 ML/RAT 2/WK FOR 105 WK (ME, Tumor Site: Type of Lesion: ADRENAL GLAND: TUMOR, TESTES: TUMOR) “active; positive”.

For `CNC(=O)ON=CC(C)(C)SC`, the carcinogen call was “inactive; negative” (Species: MOUSE, Strain/Sex: B6C3F1/FEMALE, Route: ORAL, Dose: 0, 2, 6 PPM IN DIET, Dose: 0, 2, 6 PPM IN DIET); “inactive; negative” (Species: MOUSE, Strain/Sex: B6C3F1/MALE, Route: ORAL, Dose: 0, 2, 6 PPM IN DIET, Dose: 0, 2, 6 PPM IN DIET); “inactive; negative” (Species: RAT, Strain/Sex: F344/FEMALE, Route: ORAL, Dose: 0, 2, 6 PPM IN DIET, Dose: 0, 2, 6 PPM IN DIET); “inactive; negative” (Species: RAT, Strain/Sex: F344/MALE, Route: ORAL, Dose: 0, 2, 6 PPM IN DIET, Dose: 0, 2, 6 PPM IN DIET).

`O=NN(CCCC(F)(F)F)CCCC(F)(F)F`: the carcinogen call (Species: RAT, Strain/Sex: SPRAGUE-DAWLEY/MALE,FEMALE, Route: GAVAGE, Dose: 1.5, 7.5% IN VEGETABLE OIL 2/WK FOR UP TO 32 WK, Tumor Site: Type of Lesion: LIVER: HEPATOCELLULAR CARCINOMA, LUNG: SQUAMOUS CELL CARCINOMA, ADENOCARCINOMA) is “active; positive”.

Take `COc1ccc(OC(=O)N(CC(=O)O)Cc2ccc(OCCc3nc(-c4ccccc4)oc3C)cc2)cc1`: the carcinogen call was “inactive; negative (slight increases in hemangiosarcoma (multiple organs) and mammary glan” (Species: Mouse, Strain/Sex: Crl:CD-1 (ICR)BR/Female (60/group), Route: Oral, Dose: 0, 1, 5, 20 mg/kg (initial group) or 0, 40 mg/kg (supplemental group) by gavage daily for up to 105 wks, vehicle cont, Dose: 0, 1, 5, 20 mg/kg (initial group) or 0, 40 mg/kg (supplemental group) by gavage daily for up to 105 wks, vehicle cont); “inactive; negative (although statistical significance was not obtained, the authors consid” (Species: Mouse, Strain/Sex: Crl:CD-1 (ICR)BR/Male (60/group), Route: Oral, Dose: 0, 1, 5, 20 mg/kg (initial group) or 0, 40 mg/kg (supplemental group) by gavage daily for up to 105 wks, vehicle cont, Dose: 0, 1, 5, 20 mg/kg (initial group) or 0, 40 mg/kg (supplemental group) by gavage daily for up to 105 wks, vehicle cont, Tumor Site: Type of Lesion: GALLBLADDER: adenoma (1/60 at 20 mg/kg, 2/60 at 40 mg/kg), not significant); “active; positive (weak response)” (Species: Rat, Strain/Sex: Hsd:Sprague Dawley SD/Female (65/group), Route: Oral, Dose: 0, 1, 5, 30, 50 mg/kg by gavage daily for up to 105 wks, vehicle controls administered alkaline PEG-400, Dose: 0, 1, 5, 30, 50 mg/kg by gavage daily for up to 105 wks, vehicle controls administered alkaline PEG-400, Tumor Site: Type of Lesion: SUBCUTANEOUS TISSUE: lipoma (50 mg/kg only). UTERUS: Squamous cell carcinoma, adenoma and carcinoma, and squamous cell p, Tumor Site: Type of Lesion: SUBCUTANEOUS TISSUE: lipoma (50 mg/kg only). UTERUS: Squamous cell carcinoma, adenoma and carcinoma, and squamous cell p); “active; positive, muraglitazar reported to be a peroxisome proliferator-activated recept” (Species: Rat, Strain/Sex: Hsd:Sprague Dawley SD/Male (65/group), Route: Oral, Dose: 0, 1, 5, 30, 50 mg/kg by gavage daily for up to 105 wks, vehicle controls administered alkaline PEG-400, Dose: 0, 1, 5, 30, 50 mg/kg by gavage daily for up to 105 wks, vehicle controls administered alkaline PEG-400, Tumor Site: Type of Lesion: URINARY BLADDER: transitional cell carcinoma and papilloma at 5, 30, and 50 mg/kg associated with increased urinary soli).

Take `CN(C)/C=N/c1nnc(/C=C/c2ccc([N+](=O)[O-])o2)o1`: the carcinogen call (Species: RAT, Route: ORAL, Tumor Site: Type of Lesion: MAMMARY GLAND, INTESTINES) was “active; positive”.

Take `CC(C)[C@@H]1CC[C@@H](C)C[C@H]1O`: the carcinogen call is “inactive; negative” (Species: MOUSE, Strain/Sex: B6C3F1/FEMALE, Route: ORAL, Dose: 0, 2000, 4000 PPM IN DIET, Dose: 0, 2000, 4000 PPM IN DIET); “inactive; negative” (Species: MOUSE, Strain/Sex: B6C3F1/MALE, Route: ORAL, Dose: 0, 2000, 4000 PPM IN DIET, Dose: 0, 2000, 4000 PPM IN DIET); “inactive; negative” (Species: RAT, Strain/Sex: F344/FEMALE, Route: ORAL, Dose: 0, 3750, 7500 PPM IN DIET, Dose: 0, 3750, 7500 PPM IN DIET); “inactive; negative” (Species: RAT, Strain/Sex: F344/MALE, Route: ORAL, Dose: 0, 3750, 7500 PPM IN DIET, Dose: 0, 3750, 7500 PPM IN DIET).

Regarding `[N-]=[N+]=[N-]`, the carcinogen call is “inactive; negative” (Species: RAT, Strain/Sex: F344/FEMALE, Route: GAVAGE, Dose: 0, 5, 10 MG/KG IN DISTILLED WATER 5 D/WK FOR 103 WK (STUDY DURATION: 2 YR), Dose: 0, 5, 10 MG/KG IN DISTILLED WATER 5 D/WK FOR 103 WK (STUDY DURATION: 2 YR)) and “inactive; negative” (Species: RAT, Strain/Sex: F344/MALE, Route: GAVAGE, Dose: 0, 5, 10 MG/KG IN DISTILLED WATER 5 D/WK FOR 103 WK (STUDY DURATION: 2 YR), Dose: 0, 5, 10 MG/KG IN DISTILLED WATER 5 D/WK FOR 103 WK (STUDY DURATION: 2 YR)).

With `C[C@H](CCC(=O)O)[C@H]1CC[C@H]2[C@@H]3CC[C@@H]4C[C@H](O)CC[C@]4(C)[C@H]3CC[C@]12C`, the carcinogen call reads like this: (Species: MOUSE, Strain/Sex: B6C3F1/FEMALE, Route: GAVAGE, Dose: 0, 125, 250 MG/KG IN CORN OIL, Dose: 0, 125, 250 MG/KG IN CORN OIL) “inactive; negative”; (Species: MOUSE, Strain/Sex: B6C3F1/MALE, Route: GAVAGE, Dose: 0, 125, 250 MG/KG IN CORN OIL, Dose: 0, 125, 250 MG/KG IN CORN OIL) “inactive; negative”; (Species: RAT, Strain/Sex: F344/FEMALE, Route: GAVAGE, Dose: 0, 250, 500 MG/KG IN CORN OIL, Dose: 0, 250, 500 MG/KG IN CORN OIL) “inactive; negative”; (Species: RAT, Strain/Sex: F344/MALE, Route: GAVAGE, Dose: 0, 250, 500 MG/KG IN CORN OIL, Dose: 0, 250, 500 MG/KG IN CORN OIL) “inactive; negative”.

On to `O=C1C=C[C@H]2CO[C@@H]1O2`, for which, where the note is “Species: MOUSE, Strain/Sex: CD-1/FEMALE, Route: DERMAL, Dose: 0, 2.5 UMOL/0.1 DMSO 2/WK FOR 5 WK FOLLOWED 1 WK LATER BY 0.1 ML ACETONE 2/WK FOR 47 WK (STUDY DURATION: 52 WK)”, the carcinogen call is “inactive; negative”.
